Test results from patent EP4273147A1, “SUBSTITUTED SPIROLACTAMS, SALTS THEREOF AND THEIR USE AS HERBICIDALLY ACTIVE SUBSTANCES” (Bayer Aktiengesellschaft, priority 2022, dated 2023).

Experiments:
LOLRI [1] = assay: Herbicidal pre-emergence action, section C (Table C7); type: in vivo, Lolium rigidum; settings: application rate 320 g/ha; visual grading after ca. 3 weeks
VIOTR = assay: Herbicidal pre-emergence action, section C (Table C12); type: in vivo, Viola tricolor; settings: application rate 320 g/ha; visual grading after ca. 3 weeks
ORYZA [2] = assay: Pre-emergence effects on crop plants (Table D3); settings: crop plant; application rate 80 g/ha; visual grading after ca. 3 weeks
Source text: (§4) Seeds of mono- and dicotyledonous weed plants and crop plants were sown, in plastic or organic planting pots, in sandy loam and covered with soil. The compounds according to the invention, formulated in the form of wettable powders (WP) or as emulsifiable concentrates (EC), were applied to the surface of the covering soil as aqueous suspension or emulsion, with the addition of 0.5% of an additive, at an application rate of 600 1 of water/ha (converted).
(§5) Following treatment, the pots were placed in a greenhouse and kept under optimum growth conditions for the test plants.

GLXMA [3] = assay: Post-emergence effects on crop plants (Table F4); type: in vivo, Glycine max; settings: application rate 320 g/ha, crop plant GLXMA
Source text: (§1) 2 to 3 weeks after sowing, the test plants were sprayed in the single-leaf stage.

ZEAMX [4] = assay: Post-emergence effects on crop plants (Table F1); type: in vivo, Zea mays; settings: application rate 320 g/ha, crop plant ZEAMX
Source text: as §1

LOLRI [5] = assay: Herbicidal pre-emergence action (Table A3); type: in vivo, Lolium rigidum; settings: application rate 320 g/ha; visual grading after ca. 3 weeks
Source text: (§2) Seeds of mono- and dicotyledonous weed plants were sown in plastic pots (double sowings with one species of mono- and one species of dicotyledonous weed plants per pot), in sandy loam, and covered with soil.

ECHCG [6] = assay: Herbicidal pre-emergence action, section C (Table C6); type: in vivo, Echinochloa crus-galli; settings: application rate 320 g/ha; visual grading after ca. 3 weeks
ECHCG [7] = assay: Herbicidal post-emergence action, section E (Table E5); type: in vivo, Echinochloa crus-galli; settings: application rate 320 g/ha; assessed visually after ca. 3 weeks
Source text: as §1

ECHCG [8] = assay: Herbicidal pre-emergence action (Table A2); type: in vivo, Echinochloa crus-galli; settings: visual grading after ca. 3 weeks
Source text: as §2

STEME = assay: Herbicidal pre-emergence action (Table A6); type: in vivo, Stellaria media; settings: visual grading after ca. 3 weeks
Source text: as §2

POAAN [9] = assay: Herbicidal pre-emergence action (Table A7); type: in vivo, Poa annua; settings: visual grading after ca. 3 weeks
Source text: as §2

TRZAS [10] = assay: Post-emergence effects on crop plants (Table F2); type: in vivo, Triticum aestivum; settings: application rate 320 g/ha, crop plant TRZAS
Source text: as §1

SETVI [11] = assay: Herbicidal pre-emergence action (Table A5); type: in vivo, Setaria viridis; settings: visual grading after ca. 3 weeks
Source text: as §2

TRZAS [12] = assay: Pre-emergence effects on crop plants (Table D2); type: in vivo, Triticum aestivum; settings: crop plant; application rate 80 g/ha; visual grading after ca. 3 weeks
SETVI [13] = assay: Herbicidal pre-emergence action, section C (Table C10); type: in vivo, Setaria viridis; settings: visual grading after ca. 3 weeks
BRSNW [14] = assay: Pre-emergence effects on crop plants (Table D5); type: in vivo, Brassica napus; settings: crop plant, visual grading after ca. 3 weeks
Source text: as §4, §5

DIGSA = assay: Herbicidal pre-emergence action, section C (Table C5); type: in vivo, Digitaria sanguinalis; settings: application rate 80 g/ha; visual grading after ca. 3 weeks
BRSNW [15] = assay: Post-emergence effects on crop plants (Table F5); type: in vivo, Brassica napus; settings: application rate 320 g/ha, crop plant BRSNW
Source text: as §1

ALOMY [16] = assay: Herbicidal pre-emergence action, section C (Table C2); type: in vivo, Alopecurus myosuroides; settings: application rate 320 g/ha; visual grading after ca. 3 weeks
ZEAMX [17] = assay: Pre-emergence effects on crop plants (Table D1); type: in vivo, Zea mays; settings: crop plant; application rate 80 g/ha; visual grading after ca. 3 weeks
VERPE = assay: Herbicidal pre-emergence action, section C (Table C11); type: in vivo, Veronica persica; settings: application rate 80 g/ha; visual grading after ca. 3 weeks
ORYZA [18] = assay: Post-emergence effects on crop plants (Table F3); type: in vivo, Oryza sativa; settings: application rate 320 g/ha, crop plant ORYZA
Source text: as §1

GLXMA [19] = assay: Pre-emergence effects on crop plants (Table D4); type: in vivo, Glycine max; settings: crop plant, visual grading after ca. 3 weeks
MATIN = assay: Herbicidal pre-emergence action (Table A4); type: in vivo, Matricaria inodora; settings: application rate 1280 g/ha; visual grading after ca. 3 weeks
Source text: as §2

ALOMY [20] = assay: Herbicidal pre-emergence action (Table A9); type: in vivo, Alopecurus myosuroides; settings: application rate 1280 g/ha; visual grading after ca. 3 weeks
Source text: as §2

POAAN [21] = assay: Herbicidal post-emergence action (Table B7); type: in vivo, Poa annua; settings: application rate 1280 g/ha
Description: (§3) Seeds of mono- and dicotyledonous weed plants were placed in plastic pots in sandy loam soil (doubly sown with in each case one species of mono- or dicotyledonous weed plants per pot), covered with soil and cultivated in a greenhouse under controlled growth conditions. 2 to 3 weeks after sowing, the test plants were treated at the one-leaf stage. […] After the test plants had been kept in the greenhouse under optimum growth conditions for about 3 weeks, the activity of the preparations was rated visually in comparison to untreated controls. For example, 100% activity = the plants have died, 0% activity = like control plants.

ECHCG [22] = assay: Herbicidal post-emergence action (Table B3); type: in vivo, Echinochloa crus-galli; settings: application rate 1280 g/ha; rated visually after about 3 weeks
Description: as §3

KCHSC = assay: Herbicidal pre-emergence action (Table A10); type: in vivo, Kochia scoparia; settings: application rate 320 g/ha; visual grading after ca. 3 weeks
Source text: as §2

Row | Structure (SMILES) | pre-emergence activity against ORYZA (ORYZA [2]) | post-emergence activity against GLXMA (GLXMA [3]) | post-emergence activity against ZEAMX (ZEAMX [4]) | pre-emergence activity against LOLRI (LOLRI [5]) | pre-emergence activity against ECHCG (ECHCG [6]) | post-emergence activity against ECHCG (ECHCG [7]) | pre-emergence activity against STEME (STEME; application rate 320 g/ha) | pre-emergence activity against POAAN (POAAN [9]; application rate 320 g/ha) | post-emergence activity against TRZAS (TRZAS [10]) | pre-emergence activity against SETVI (SETVI [11]; application rate 320 g/ha) | pre-emergence activity against TRZAS (TRZAS [12]) | pre-emergence activity against SETVI (SETVI [13]; application rate 320 g/ha) | pre-emergence activity against BRSNW (BRSNW [14]; application rate 320 g/ha) | post-emergence activity against BRSNW (BRSNW [15]) | pre-emergence activity against ALOMY (ALOMY [16]) | pre-emergence activity against ZEAMX (ZEAMX [17]) | post-emergence activity against ORYZA (ORYZA [18]) | pre-emergence activity against GLXMA (GLXMA [19]; application rate 320 g/ha) | pre-emergence activity against MATIN (MATIN) | pre-emergence activity against ECHCG (ECHCG [8]; application rate 320 g/ha) | other results
1 | O=C1N(Cc2ccc(F)cc2F)CCCC12CCCN(Cc1ccc(F)cc1F)C2=O (racemic) [I-021] | 10% | 10% | 10% | 100% | 100% | 80% | 90% | 90% | 0% | 100% | 0% | 100% | 20% | 0% | 100% | 0% | 0% | 10% | – | – | pre-emergence activity against LOLRI (LOLRI [1]): 100%; pre-emergence activity against VIOTR (VIOTR): 80%; pre-emergence activity against ECHCG (ECHCG [8]; application rate 1280 g/ha): 100%; pre-emergence activity against DIGSA (DIGSA): 90%; pre-emergence activity against VERPE (VERPE): 100%
2 | COc1ccccc1CN1CCCC2(CCCN(Cc3ccccc3F)C2=O)C1=O (racemic) [I-061] | 0% | – | 0% | 100% | 100% | 80% | – | 100% | 0% | 100% | – | 100% | 0% | 0% | 80% | 0% | 0% | 0% | 90% | 100% | pre-emergence activity against ALOMY (ALOMY [20]): 90%; post-emergence activity against POAAN (POAAN [21]): 90%; post-emergence activity against ECHCG (ECHCG [22]): 90%
3 | O=C1N(Cc2ccsc2)CCCC12CCCN(Cc1cccc(F)c1F)C2=O (racemic) [I-072] | – | 0% | 0% | 100% | 100% | – | – | – | 0% | – | 10% | – | – | 0% | 80% | – | 0% | – | 90% | 100% | pre-emergence activity against STEME (STEME; application rate 1280 g/ha): 90%; pre-emergence activity against POAAN (POAAN [9]; application rate 1280 g/ha): 90%; pre-emergence activity against SETVI (SETVI [11]; application rate 1280 g/ha): 90%; pre-emergence activity against SETVI (SETVI [13]; application rate 80 g/ha): 100%; pre-emergence activity against BRSNW (BRSNW [14]; application rate 80 g/ha): 20%; pre-emergence activity against KCHSC (KCHSC): 90%; pre-emergence activity against GLXMA (GLXMA [19]; application rate 80 g/ha): 0%
4 | Cc1ccccc1CN1CCCC2(CCCN(Cc3ccccc3F)C2=O)C1=O (racemic) [I-044] | – | – | 0% | 100% | 100% | 80% | 90% | 90% | 10% | 90% | 0% | – | 0% | 0% | 80% | 0% | 0% | 0% | 100% | 100% | pre-emergence activity against ALOMY (ALOMY [20]): 90%; post-emergence activity against POAAN (POAAN [21]): 90%; post-emergence activity against ECHCG (ECHCG [22]): 90%; pre-emergence activity against SETVI (SETVI [13]; application rate 80 g/ha): 100%
